The target of experiment [1] is Serine/threonine-protein kinase PINK1, mitochondrial (Homo sapiens) (UniProt Q9BXM7). The experiment in a line: Activation of PINK1 in human HeLa MKYP cells expressing PINK1 treated with FCCP/oilgomycin assessed as increase in pS65 Ub and measured by ELISA assay. Particulars: filed as activator. In kind it is cell-based.
Experiment [2] deals with Mus musculus. The experiment in a line: Protection against cisplatin-induced mitochondrial dysfunction in mouse assessed as decrease in GDF15 expression at 20 to 50 mg/kg, po administered daily. In kind it is functional, organism-based. Particulars: dose 20-50 mg/kg.
The subject of experiment [3] is Mus musculus. The experiment in a line: Protection against preformed alpha-synuclein amyloid fibril (PFF) in C57BL/6 mouse model assessed as decrease in all species of alpha-synuclein in ipsilateral striatum at 5 to 50 mg/kg, po administered daily for 28 days. It is filed as functional, organism-based. Particulars: dose 5-50 mg/kg, time 28.0 day.
For experiment [4], the target named is Serine/threonine-protein kinase PINK1, mitochondrial (Homo sapiens) (UniProt Q9BXM7). The experiment in a line: Activation of PINK1 in human HeLa MKYP PINK1-knock out cells treated with FCCP/oilgomycin assessed as increase in pS65 Ub and measured by ELISA assay. In kind it is cell-based. A general note: ELISA stands for enzyme-linked immunosorbent assay.
Experiment [5] deals with Mus musculus. The experiment is described as follows: Protection against preformed alpha-synuclein amyloid fibril (PFF) in C57BL/6 mouse model assessed as decrease in pS129 monomer of alpha-synuclein in ipsilateral striatum at 5 to 50 mg/kg, po administered daily for 28 days. In kind it is functional, organism-based. Conditions: dose 5-50 mg/kg, time 28.0 day.
For experiment [6], the system named is HeLa. The experiment in a line: Induction of mitophagy in human HeLa MKYP PINK1-knockout cells treated with FCCP/oligomycin for 6 hrs and measured by FACS analysis. In kind it is functional, cell-based.
The subject of experiment [7] is Mus musculus. The experiment in a line: Protection against preformed alpha-synuclein amyloid fibril (PFF) in C57BL/6 mouse model assessed as decrease in all species of alpha-synuclein in ventral midbrain at 5 to 50 mg/kg, po administered daily for 28 days. It is filed as functional, organism-based. Conditions: dose 5-50 mg/kg, time 28.0 day.
Experiment [8] has as its target Serine/threonine-protein kinase PINK1, mitochondrial (Homo sapiens) (UniProt Q9BXM7). The experiment in a line: Activation of PINK1 in human HeLa MKYP cells expressing PINK1 treated with FCCP/oilgomycin assessed as increase in parkin recruitment and measured by ELISA assay. It is filed as cell-based. Particulars: filed as activator.
The target is the same in experiment [9]. The experiment in a line: Activation of PINK1 in human HeLa cells stably expressing YFP parkin assessed as reduction in dOTC protein accumulation and measured by ornithine carbamoyltransferase (DOTC) assay relative to control. It is filed as cell-based. Particulars: filed as activator.
The subject of experiment [10] is HeLa. The experiment is described as follows: Induction of mitophagy in human HeLa MKYP cells expressing wild-type PNIK1 treated with FCCP/oligomycin for 6 hrs and measured by FACS analysis. It is filed as functional, cell-based. (Flow cytometry measures light scatter and fluorescence of single cells or particles in a stream.)
Experiment [11] relates to Mus musculus. The experiment in a line: Protection against preformed alpha-synuclein amyloid fibril (PFF) in C57BL/6 mouse model assessed as decrease in total monomer of alpha-synuclein in ipsilateral striatum at 5 to 50 mg/kg, po administered daily for 28 days. In kind it is functional, organism-based. Conditions: dose 5-50 mg/kg, time 28.0 day.
In experiment [12] the test system is Mus musculus. The experiment in a line: Protection against preformed alpha-synuclein amyloid fibril (PFF) in C57BL/6 mouse model assessed as decrease in C-terminal truncation of alpha-synuclein in ipsilateral striatum at 5 to 50 mg/kg, po administered daily for 28 days. It is filed as functional, organism-based. Particulars: dose 5-50 mg/kg, time 28.0 day.
Experiment [13] concerns the target Serine/threonine-protein kinase PINK1, mitochondrial (Homo sapiens) (UniProt Q9BXM7). The experiment is described as follows: Activation of PINK1 in human HeLa MKYP PINK1-knock out cells treated with FCCP/oilgomycin assessed as increase in parkin recruitment and measured by ELISA assay. In kind it is cell-based.
The target is the same in experiment [14]. The experiment is described as follows: Activation of PINK1 in human iPSC derived neurons at 3.1 to 6.2 uM assessed as reduction in pS129 alpha-synuclein. It is filed as cell-based. Conditions: Neuron, filed as activator, dose 3.1-6.2 µM.
Experiment [15] has the same target. The experiment in a line: Activation of PINK1 in human HeLa MKYP PINK1-knock out cells at 3.125 to 6.25 uM assessed as reduction in pS129 alpha-synuclein. It is filed as cell-based. Conditions: dose 3.125-6.25 µM.
Experiment [16] relates to Mus musculus. The experiment in a line: Protection against preformed alpha-synuclein amyloid fibril (PFF) in C57BL/6 mouse model assessed as decrease in all species of alpha-synuclein in contralateral striatum at 5 to 50 mg/kg, po administered daily for 28 days. In kind it is functional, organism-based. Conditions: dose 5-50 mg/kg, time 28.0 day.

The source made the active and inactive calls. The rule behind the calls is not given here.

Chain of Serine/threonine-protein kinase PINK1, mitochondrial (Homo sapiens) (Q9BXM7 whole entry): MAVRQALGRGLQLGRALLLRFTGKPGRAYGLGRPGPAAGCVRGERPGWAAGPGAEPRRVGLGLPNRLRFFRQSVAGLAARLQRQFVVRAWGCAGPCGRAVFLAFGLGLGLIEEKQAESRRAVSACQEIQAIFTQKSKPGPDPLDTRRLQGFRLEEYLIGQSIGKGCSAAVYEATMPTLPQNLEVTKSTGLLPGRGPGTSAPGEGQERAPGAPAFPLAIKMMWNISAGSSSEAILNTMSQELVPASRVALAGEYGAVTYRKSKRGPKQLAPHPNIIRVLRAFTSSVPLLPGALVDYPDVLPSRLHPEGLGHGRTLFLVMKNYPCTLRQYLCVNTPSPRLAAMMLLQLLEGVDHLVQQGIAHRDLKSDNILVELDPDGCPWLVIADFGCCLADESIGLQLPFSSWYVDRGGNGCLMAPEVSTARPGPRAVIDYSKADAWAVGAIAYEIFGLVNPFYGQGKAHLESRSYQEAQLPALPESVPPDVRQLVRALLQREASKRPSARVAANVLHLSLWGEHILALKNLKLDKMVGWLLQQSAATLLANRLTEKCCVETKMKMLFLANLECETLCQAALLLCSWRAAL

In the case of `FC(F)(F)c1cc2c(NC3CCCc4ccccc43)ncnc2[nH]1` (stereo in doubt), the result (in experiment [1]; with Mus musculus [2]; in the experiment on Mus musculus [3]; in the experiment with Mus musculus [5]; in the experiment with Mus musculus [7]; in experiment [8]) was Active. Also, the outcome (in experiment [9]; in the experiment with HeLa [10]; in the experiment on Mus musculus [11]; in the experiment on Mus musculus [12]; in experiment [14]; in the experiment on Mus musculus [16]) was Active. The outcome (in experiment [4]; in the experiment with HeLa [6]; in [13]; in experiment [15]) was inactive.
